“Also recorded” adds a separate entry of the source. No end group written: not given here.
How the values were obtained:
[1] = system: main (orbital) lacrimal gland; settings: administered intravenously to rabbits; cited from earlier work
dry eye rabbits = assay: Elimination of tracer Tc99m (sodium pertechnetate) from the tear film of dry eye rabbits; format: in vivo, rabbit; settings: VIP 2×10^-6 M in 10 μl radioactive buffer
Protocol: In a separate example, dry eye rabbits were studied by examining the rate of elimination of a tracer substance technectium, Tc^99m, as sodium pertechnetate from the tear film. Essentially equivalent counts of Tc^99m were placed in ten microliters of, in some instances, a buffer solution to serve as a control, and in other instances, a buffer solution containing 2×10^-6 M VIP. Radioactivity present in the tear film was measured over contiguous fifteen second periods for thirty minutes with a gamma camera, and the measurements stored on a computer. The following protocol was used: Rabbits were anesthetized with IM rompun and ketamine. At zero time proparacaine was applied. At five minutes, the radioactive buffer with VIP was instilled in the eye. Radioactivity present in the tear film was then recorded as described. After thirty minutes, proparacaine was again instilled in the eye and the procedure repeated with radioactive buffer alone. […] This increased rate of tracer washout is understood to be indicative of increased tear secretion. In a second similar experiment, the effect of VIP was first tested, and then radioactive buffer alone, and then the effect of VIP again.

[2] = system: rat exorbital lacrimal gland; settings: cited from earlier work
rabbits with dry eyes = assay: Tear film osmolality in dry eye rabbit after topical test drop; format: in vivo; settings: 10 μl topical drop
Protocol: In vivo examples of the invention were conducted on rabbits with dry eyes. The dry eye disorder is created by surgically closing the duct that carries fluid from the main lacrimal gland to the tear film and surgically removing the nictitans and harderian glands. This leaves intact only the accessory glands that lie on the ocular surface. These rabbits develop increased tear film osmolality soon after the operation, a finding that is understood to be due to decreased tear production, and that is characteristic of dry eye. It is recognized that results of ophthalmologic tests using rabbits has close correlation with humans, and therefore the results carry over to humans.
The effect of topically applied isotonic buffer solution with and without VIP on tear film osmolality was studied in the dry eye rabbit. All test drops were ten μl in volume and were applied in each case six minutes after the instillation of proparacaine, which anesthetizes the surface of the eye and prevents reflex tearing. Tear samples were taken with a micropipette system, in the manner described in the article entitled "Osmolarity of Tear Microvolumes in Keratoconjunctivitis Sicca", by Gilbard et al, Arch Ophthalmol 96:677, 1978. Osmolality was measured by freezing-point depression.
The following protocol was used for each drop tested. Six minutes prior to instillation of the test drop proparacaine was instilled. At zero time a tear sample was taken for measurement of osmolality. At one minute the test drop was instilled. At six and at sixteen minutes, tear samples were taken for osmolality measurements. The procedure for instilling each test drop is that the drop of buffered solution was first instilled in the dry eye and measurements were taken followed by a drop of buffered solution containing VIP. The following test drops were instilled: (1) buffer solution, (2) buffer solution containing 2×10^-8 M VIP, (3) buffer solution, (4) buffer solution containing 2×10^-7 M VIP, (5) buffer solution, (6) buffer solution containing 2×10^-6 M VIP. The results are shown in FIGS. 1A, 1B, and 1C and FIGS. 2A, 2B, and 2C, where FIGS. 1 and 2 each represent the results obtained from the same rabbit.
In separate experiments, the effect of topically applied isotonic buffer solution with or without glucagon or secretin on tear film osmolality was studied in dry eye rabbits. All test drops were ten microliters in volume. Tear osmolality was measured one minute prior to drop instillation and five and fifteen minutes after drop instillation. A drop of buffered solution was first instilled in the dry eye and measurements were taken followed by a drop of buffered solution containing glucagon or secretin, depending on the test.

lacrimal gland = settings: administered intra-arterially; cited from earlier work
[3] = additives needed; cited from earlier work

vasoactive intestinal peptide (HSDAVFTDNYTRLRKQMAVKKYLNSILN; ends and bridges not checked; UniProt P01282 125-152, looked up) [VIP]
main (orbital) lacrimal gland secretion [1]: can stimulate main (orbital) lacrimal gland secretion
slope of the elimination curve of Tc99m from tear film, first 15 minutes (dry eye rabbits; topical, dry eye rabbit, placebo -0.82, FIG. 4): -1.65
slope of the elimination curves versus radioactive buffer alone, second experiment (dry eye rabbits; two VIP tests, FIG. 5): substantially steeper than for radioactive buffer alone
protein secretion in vitro [2]: stimulate protein secretion in vitro
effect on tear film osmolality versus placebo, same experiment as CCK (rabbits with dry eyes; VIP 2×10^-6 M, FIGS. 3A, 3B): decreased tear film osmolality more effectively than a placebo in one of two trials
effect on tear film osmolality versus buffer solution alone (rabbits with dry eyes; VIP 2×10^-8, 2×10^-7, 2×10^-6 M, samples at 6 and 16 min, FIGS. 1 and 2): lowers the tear film osmolality more effectively than buffer solution alone; also recorded: dose-dependent decrease in tear film osmolality
lacrimal gland secretion (lacrimal gland): stimulate lacrimal gland secretion

glucagon
solubility [3]: requires the additives glycerin and lactose to render it soluble
effect on tear film osmolality versus buffer solution alone (rabbits with dry eyes; glucagon 2×10^-6, 2×10^-5, 2×10^-4 M, 5 and 15 min after drop, FIG. 6): lowers tear film osmolality more effectively than buffer solution alone; also recorded: dose-dependent decrease in tear film osmolality

secretin
effect on tear film osmolality versus buffer solution alone (rabbits with dry eyes; secretin 2×10^-7, 2×10^-6, 2×10^-5 M, 5 and 15 min after drop, FIG. 7): lowers tear film osmolality more effectively than buffer solution alone; also recorded: dose-dependent decrease in tear film osmolality

B1: Cholecystokinin (peptide, UniProt P06307 21-115, looked up)
Cholecystokinin: QPVPPADPAGSGLQRAEEAPRRQLRVSQRTDGESRAHLGALLARYIQQARKAPSGRMSIVKNLQNLDPSHRISDRDYMGWMDFGRRSAEEYEYPS
modifications: Cholecystokinin
notes: gastrointestinal hormone tested topically as comparison
effect on tear osmolality versus placebo (rabbits with dry eyes; CCK 2×10^-4 M, FIG. 3B): did not lower tear osmolality more effectively than a placebo
lacrimal gland secretion (lacrimal gland): stimulate lacrimal gland secretion

Source: US4745100A, “Stimulation of tear secretion” (Eye Research Institute of Retina Foundation, priority 1986, dated 1988)
